According to patent US20060039937A1, “Composition having antioxidant properties” (priority 2003, published 2006):
In brackets after ≈: the same amount, converted by molar mass. Entries after “also recorded” stand apart in the source; their conditions may differ.

Experiments:
[1] = DPPH assay (free-radical scavenging); format: biochemical; conditions: for AE (×10^−3): anti-free-radical efficiency from EC50 and TEC50; for TEC50: reaction time necessary to achieve EC50; for DPPH free-radical scavenging: amount of antioxidant (in mg) needed to inhibit 1 mmol of DPPH; for antioxidative action (DPPH test), in words: comparison with vitamin C
Experimental: In the presence of a free-radical scavenger, the electron is paired, the absorption disappears, and the decoloration proceeds stoichiometrically taking into account the electrons taken up. The absorbance is measured in a photometer, The anti-free-radical property of the substance to be tested is determined by measuring the concentration at which 50% of the 2,2-diphenyl-1-picrylhydrazyl employed has reacted with the free-radical scavenger. This concentration is expressed as EC50, a value which can be considered to be a property of the substance under the given measurement conditions. […] The EC50 value here is a measure of the capacity of the respective compound to scavenge free radicals. The lower the EC50 value, the higher the capacity to scavenge free radicals. […] A further important aspect for the action of the antioxidants is the time in which this EC50 value is reached. This time, measured in minutes, gives the TEC50 value, which allows a conclusion to be drawn on the rate at which these antioxidants scavenge free radicals. The anti-free-radical efficiency (AE) (described in C. Sanchez-Moreno, J. A. Larrauri and F. Saura-Calixto in J. Sci. […] Aliquots of this solution are mixed with various concentrations of the compound to be tested. […] The lower this value, the higher the corresponding antioxidant activity. The reaction time necessary to achieve this value is indicated in the value TEC50 (in minutes). The anti-free-radical efficiency (AE) is obtained from this in accordance with the following relationship: [formula] A higher AE value here indicates a higher activity against free radicals.

[2] = Rancimat assay (oxidation stability of soya oil); conditions: for Protection factor: 0.1% by weight in 4 g of soya oil at 120° and 15 l of air/h
Source text: The Rancimat method for determination of the oxidation stability of fats and oils is known from the literature (Läubli M. W., Bruttel P. A.: “Determination of the oxidation stability of fats and oils—comparison between the active oxygen method (AOCS Cd 12-57) and the Rancimat method”, Fat. Sci. Technol. 90; 56-58 (1988); or Metrohm “Application Bulletin” Metrohm, No. 232/1 d, “Determination of the antioxidant activity by the Rancimat method”; handbook: “Rancimat 679”, Metrohm, instrument for the determination of oxidation and thermal stability, use instructions 8.679.1001, Metrohm AG, CH-9100 Herisau (Switzerland)).

[3] = Hypoxanthine-xanthine oxidase test (superoxide scavenging, NBT reduction); format: biochemical; conditions: value at which 50% of the original superoxide free-radical anion concentration is still present
Experimental: Superoxide Free-Radical Anion Scavenging Efficiency of ASG I (Hypoxanthine-Xanthine Oxidase Test) Reaction of fresh xanthine oxidase with hypoxanthine in the presence of EDTA in aqueous solution gives superoxide free-radical anions. The free-radical anions are determined spectrophotometrically via the reduction of nitroblue tetrazolium (NBT) to nitroblue diformazan. The reduction is evident from the […] in the absorption band at 560 nm. […] The IC50 is the value at which 50% of the original superoxide free-radical anion concentration is still present. The lower this value, the higher the corresponding antioxidant activity.

[4] = Time dependence of the antioxidative activity (DPPH test after storage); conditions: 1 mol % solution in EtOH:H2O 1:1, storage for 90 days at 40° C.
[5] = TEAC assay (ABTS radical cation decolorisation); format: biochemical; conditions: comparative experiment with starting substances
Experimental: This free-radical cation has absorption maxima at 645 nm, 734 nm and 815 nm. The addition of an antioxidant to the ABTS free-radical cation results in reduction to ABTS. The magnitude of this conversion depends on the activity and concentration of the antioxidant and on the duration of the reaction. The reduction is evident from the decrease in absorbance, and the percentage of reduced ABTS is determined as a function of concentration and time and calculated relative to the reactivity of trolox (TEAC). […] This method can be used for the determination of antioxidants which are soluble in water or organic solvents (according to: Re, […]., Yang, M., & Rice, E. C. (1999) Antioxidant activity applying an improved ABTS radical cation decolorisation assay. Free Radical Biology and Medicine, 26, 1231-1237). The absorbance values measured after six minutes are used. The percentage of reduced ABTS is plotted against the concentration of the active ingredient (ASG I from Example 1 or trolox), and the slope of the lines is determined. In order to determine the TEAC value of ASG I, […].

[6] = Lipid assay (ABAP-induced oxidation of linoleic acid in SDS micelles); format: biochemical; conditions: for Standardised to tocopherol (relative antioxidative efficiency, RAE): % inhibition standardised to tocopherol; for AE/20 min: absorbance change at 236 nm, Reference 0.4567; for Lipid test: comparative experiment, standardised to tocopherol; for % inhibition: inhibition of linoleic acid oxidation versus reference
Experimental: ABAP, which is water-soluble per se, is dispersed in SDS micelles. Linoleic acid (cis,cis-9,12-octadecadienoic acid) is likewise dispersed in SDS micelles. The free radicals cause the oxidation of linoleic acid to the isomer having conjugated double bonds. The formation of the conjugated double bond can be determined through the increase in the absorbance at 236 nm. The ability of the antioxidant to inhibit the rate of formation is determined relative to the tocopherol standard (in accordance with: Pryor, W. A., Cornicelli, […]., & Wu, M. (1993) A rapid screening test to determine the antioxidant potencies of natural and synthetic antioxidants. J Org Chem, 58, 3521-3532).

[7] = Storage stability / hydrolysis of ASG I in EtOH:H2O solution; format: physicochemical
Experimental: The reducing action of each substance (DPPH test) as a function of time is investigated and expressed as the amount of substance in mg required to inhibit 1 mmol of the DPPH free radical (FIG. 1).
Under storage conditions (90 days at 40° C., 1 mol-percent solution in EtOH:H2O), only 50% of the initial concentration of ASG I is retained after 30 days.

tyrosinase = assay: Tyrosinase activity test with substrate L-tyrosine; format: biochemical; conditions: tyrosinase 10 units, L-tyrosine 4 mM, 37° C., 1 hour, OD 450 nm
Experimental: Tyrosinase is the key enzyme in the synthesis of melanin. Substances which inhibit tyrosinase activity are therefore suitable as skin-lightening active ingredients. The action is also investigated with L-tyrosine as substrate and compared with that of reference substances. The substances and tyrosinase (10 units) are pre-incubated on ice for 10 minutes; tyrosine is then added (final concentration 4 mM), and the plates are incubated at 37° C. for 1 hour. The optical density at each test point is measured at 450 nm against the corresponding control without enzyme.

[8] = no shift in absorbance of the complex induced by N3^−
[9] = test described in Gan, Seib 1998; cited from earlier work

With `O=c1c(O)c(-c2ccc(O)c(O)c2)oc2cc(O)cc(O)c12` [3,5,7,3′,4′-Pentahydroxyflavone, reference compound] the “AE (×10^−3)” value [1] was 83 ×10^−3 and the TEC50 [1] was 120 min.

For `O=C1O[C@H]([C@@H](O)COC(=O)c2cccc(O)c2)C(O)=C1O` [Substance 6, L-ascorbyl 6-O-(3-hydroxy)benzoate], the DPPH free-radical scavenging [1] was 193 mg.

With `COc1cc(C(=O)OC[C@H](O)[C@H]2OC(=O)C(O)=C2O)cc(OC)c1O` [Substance 2, L-ascorbyl 6-O-(4-hydroxy-3,5-dimethoxy)benzoate] the DPPH free-radical scavenging [1] was 185 mg and the “antioxidative action (DPPH test), in words” value [1] was “virtually the same reducing action as vitamin C”.

With `Cc1c(C)c2c(c(C)c1O)CCC(C)(CCCC(C)CCCC(C)CCCC(C)C)O2` (centres unmarked) [Vitamin E, reference compound] the Protection factor ([2]; substance added pure) was 0.94.

For `Cc1c(C)c2c(c(C)c1O)CCC(C)(C(=O)O)O2` (centres unmarked) [Trolox], the “IC50” value [3] was 388 µg/mL (≈ 1550 µM).

For `CCCCCCCCCCCCCCCC(=O)OC[C@H](O)[C@H]1OC(=O)C(O)=C1O` [Ascorbyl palmitate, 6-ascorbyl palmitate, reference compound], the DPPH free-radical scavenging [1] was 211 mg, the Protection factor ([2]; substance added pure) was 2.01 and the “antioxidative action after storage (DPPH test)” value [4] was “lose their antioxidative action”.

With `O=C1O[C@H]([C@@H](O)COC(=O)c2ccc(O)cc2)C(O)=C1O` [Substance 4, L-ascorbyl 6-O-(4-hydroxy)benzoate] the DPPH free-radical scavenging [1] was 185 mg and the “antioxidative action (DPPH test), in words” value [1] was “virtually the same reducing action as vitamin C”.

Compound `COc1cccc(C(=O)OC[C@H](O)[C@H]2OC(=O)C(O)=C2O)c1` [Substance 7, L-ascorbyl 6-O-(3-methoxy)benzoate] has a DPPH free-radical scavenging [1] of over 1000 mg.

For `O=C1O[C@H]([C@@H](O)COC(=O)c2ccc(O)c(O)c2)C(O)=C1O` [Substance 3, L-ascorbyl 6-O-(3,4-dihydroxy)benzoate], the DPPH free-radical scavenging [1] was 56 mg and the “antioxidative action (DPPH test), in words” value [1] was “great antioxidative action”.

With `O=C1O[C@H]([C@@H](O)COC(=O)c2cc(O)c(O)c(O)c2)C(O)=C1O` [ASG I, L-ascorbyl 6-gallate] the DPPH free-radical scavenging [1] was 54 mg, the “AE (×10^−3)” value [1] was 69.4 ×10^−3 and the “antioxidative action (DPPH test), in words” value [1] was “significantly greater antioxidative action than vitamin C or derivatives thereof”. The TEC50 [1] was 180 min, the TEAC [5] was 3.65 and the “Standardised to tocopherol (relative antioxidative efficiency, RAE)” value [6] was 0.69. For the same compound, the “activity relative to tocopherol” value ([6]; RAE expressed as percent of the activity of tocopherol) was 69%, the AE/20 min [6] was 0.1594 and the Lipid test [6] was 0.69. The “% inhibition” value [6] was 65.1%, the “IC50” value [3] was 9.3 µg/mL (≈ 28.3 µM) and the Protection factor ([2]; dissolved in ethanol) was 3.07. The Protection factor ([2]; substance added pure) was 1.22, the “solubility in soya oil” value ([2]; pure substance in soya oil, Rancimat test) was “only dissolves partially” and the “antioxidative action after storage (DPPH test)” value [4] was “retained”. For the same compound, the initial concentration retained ([7]; 1 mol-percent solution in EtOH:H2O, 40° C., after 30 days) was 50%, the “stability, in words” value ([7]; pure substance versus aqueous solution) was “stable as the pure substance; also recorded: undergo hydrolysis in aqueous solution” and the IC50 (tyrosinase) was 0.109 mM. The “complex formation with Fe^3+” value [8] was “strong complex-forming properties” and the “effectiveness as antioxidant, in words” value [9] was “less effective than propyl gallate, but more effective than L-ascorbic acid or L-ascorbyl palmitate”.

In the case of `O=C1O[C@H]([C@@H](O)CO)C(O)=C1O` [Vitamin C, ascorbic acid, reference compound], the DPPH free-radical scavenging [1] is reported as 102 mg, the “AE (×10^−3)” value [1] is reported as 61.72 ×10^−3 and the TEC50 [1] is reported as under 60 min. The TEAC [5] was 1, the Lipid test [6] was 0.09 and the “IC50” value [3] was 25.5 µg/mL (≈ 145 µM). The “antioxidative action after storage (DPPH test)” value [4] was “lose their antioxidative action”.

With `Cc1c(C)c2c(c(C)c1O)CCC(C)(CCCC(C)CCCC(C)CCCC(C)C)O2` (centres unmarked) [Tocopherol, reference compound] the “AE (×10^−3)” value [1] was 64.1 ×10^−3, the TEC50 [1] was under 60 min and the “Standardised to tocopherol (relative antioxidative efficiency, RAE)” value [6] was 1.00. The AE/20 min [6] was 0.0242 and the “% inhibition” value [6] was 94.7%.

In the case of `COc1ccc(C(=O)OC[C@H](O)[C@H]2OC(=O)C(O)=C2O)cc1` [Substance 5, L-ascorbyl 6-O-(4-methoxy)benzoate], the DPPH free-radical scavenging [1] is reported as 161 mg and the “antioxidative action (DPPH test), in words” value [1] is reported as “virtually the same reducing action as vitamin C”.

In the case of `O=C1O[C@H]([C@@H](O)CO)C([O-])=C1OP(=O)([O-])[O-].O=C1O[C@H]([C@@H](O)CO)C([O-])=C1OP(=O)([O-])[O-].[Mg+2].[Mg+2].[Mg+2]` [MAP, magnesium ascorbyl phosphate, reference compound], the DPPH free-radical scavenging [1] is reported as over 1000 mg and the IC50 (tyrosinase) is reported as 33.1 mM.

For `O=C(O)c1cc(O)c(O)c(O)c1` [Gallic acid, reference compound], the TEAC [5] was 2.76 and the Lipid test [6] was 0.37.
